In publication PMC10599993, “The PTPN2/PTPN1 inhibitor ABBV-CLS-484 unleashes potent anti-tumour immunity” (Nature, 2023):

Tests used:
Assay in all cases: biochemical
Parameters in all cases: Kinase selectivity panel, IC50 of AC484 (Supplementary Table 1)
[1] = target: ALK (Homo sapiens, UniProt Q9UM73)
[2] = target: Akt1 (Homo sapiens, UniProt P31749)
[3] = target: T1, Aurora 2 (Homo sapiens, UniProt O14965)
T1 construct: gene AURKA

[4] = target: BMX (Homo sapiens, UniProt P51813)
[5] = target: CDK9/Cyclin K (Homo sapiens, UniProt P50750)
[6] = target: T2, Ck1alpha1 (Homo sapiens, UniProt P48729)
T2 construct: gene CSNK1A1
T2 sequence (P48729 whole entry): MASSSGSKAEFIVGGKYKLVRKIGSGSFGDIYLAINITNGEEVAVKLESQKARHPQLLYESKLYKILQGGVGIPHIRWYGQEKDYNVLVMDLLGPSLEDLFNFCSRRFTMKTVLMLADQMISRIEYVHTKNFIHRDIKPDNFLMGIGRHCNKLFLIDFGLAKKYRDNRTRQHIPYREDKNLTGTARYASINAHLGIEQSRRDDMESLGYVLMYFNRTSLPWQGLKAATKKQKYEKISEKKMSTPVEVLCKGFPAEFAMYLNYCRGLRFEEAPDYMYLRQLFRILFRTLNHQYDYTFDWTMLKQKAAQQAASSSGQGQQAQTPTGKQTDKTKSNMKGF

[7] = target: DDR1 (Homo sapiens, UniProt Q08345)
[8] = target: ErbB2 (Homo sapiens, UniProt P04626)
[9] = target: T3, FAK (Homo sapiens, UniProt Q05397)
T3 construct: gene PTK2

[10] = target: GRK5 (Homo sapiens, UniProt P34947)
[11] = target: T4, IKKE (Homo sapiens, UniProt Q14164)
T4 construct: gene IKBKE

[12] = target: IRAK4 (Homo sapiens, UniProt Q9NWZ3)
[13] = target: JAK2 (Homo sapiens, UniProt O60674)
[14] = target: JAK3 (Homo sapiens, UniProt P52333)
JAK3, sequence (P52333 whole entry): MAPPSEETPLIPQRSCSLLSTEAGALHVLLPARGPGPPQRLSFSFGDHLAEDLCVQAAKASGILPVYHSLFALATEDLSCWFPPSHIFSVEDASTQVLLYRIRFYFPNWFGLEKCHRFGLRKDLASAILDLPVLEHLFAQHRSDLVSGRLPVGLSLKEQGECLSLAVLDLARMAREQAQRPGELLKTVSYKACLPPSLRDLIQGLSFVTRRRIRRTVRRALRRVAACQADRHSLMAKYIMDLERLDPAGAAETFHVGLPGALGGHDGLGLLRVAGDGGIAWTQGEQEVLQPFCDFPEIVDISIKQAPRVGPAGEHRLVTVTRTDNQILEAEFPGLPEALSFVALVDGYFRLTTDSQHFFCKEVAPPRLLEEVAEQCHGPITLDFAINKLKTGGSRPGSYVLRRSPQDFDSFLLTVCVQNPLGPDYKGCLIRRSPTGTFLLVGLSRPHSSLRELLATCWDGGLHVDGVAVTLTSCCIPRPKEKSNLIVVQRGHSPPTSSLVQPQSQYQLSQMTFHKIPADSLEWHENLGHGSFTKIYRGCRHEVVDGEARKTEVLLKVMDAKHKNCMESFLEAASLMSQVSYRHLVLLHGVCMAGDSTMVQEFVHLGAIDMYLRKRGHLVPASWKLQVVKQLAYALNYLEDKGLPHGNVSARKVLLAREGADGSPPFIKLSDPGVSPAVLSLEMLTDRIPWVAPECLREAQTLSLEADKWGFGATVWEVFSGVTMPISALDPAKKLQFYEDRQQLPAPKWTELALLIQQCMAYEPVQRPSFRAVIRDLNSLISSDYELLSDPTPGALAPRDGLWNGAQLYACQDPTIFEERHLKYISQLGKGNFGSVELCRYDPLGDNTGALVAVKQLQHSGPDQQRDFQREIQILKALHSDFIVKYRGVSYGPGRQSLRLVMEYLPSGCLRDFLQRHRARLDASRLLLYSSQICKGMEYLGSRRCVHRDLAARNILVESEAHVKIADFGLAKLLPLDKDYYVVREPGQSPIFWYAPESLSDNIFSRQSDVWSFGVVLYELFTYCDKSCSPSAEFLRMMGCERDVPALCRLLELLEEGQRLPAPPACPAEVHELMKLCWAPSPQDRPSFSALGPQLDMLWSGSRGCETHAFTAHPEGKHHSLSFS

[15] = target: T5, LYN-B (Homo sapiens, UniProt P07948)
T5 construct: isoform B

[16] = target: MAP3K10 (Homo sapiens, UniProt Q02779)
MAP3K10, sequence (Q02779 whole entry): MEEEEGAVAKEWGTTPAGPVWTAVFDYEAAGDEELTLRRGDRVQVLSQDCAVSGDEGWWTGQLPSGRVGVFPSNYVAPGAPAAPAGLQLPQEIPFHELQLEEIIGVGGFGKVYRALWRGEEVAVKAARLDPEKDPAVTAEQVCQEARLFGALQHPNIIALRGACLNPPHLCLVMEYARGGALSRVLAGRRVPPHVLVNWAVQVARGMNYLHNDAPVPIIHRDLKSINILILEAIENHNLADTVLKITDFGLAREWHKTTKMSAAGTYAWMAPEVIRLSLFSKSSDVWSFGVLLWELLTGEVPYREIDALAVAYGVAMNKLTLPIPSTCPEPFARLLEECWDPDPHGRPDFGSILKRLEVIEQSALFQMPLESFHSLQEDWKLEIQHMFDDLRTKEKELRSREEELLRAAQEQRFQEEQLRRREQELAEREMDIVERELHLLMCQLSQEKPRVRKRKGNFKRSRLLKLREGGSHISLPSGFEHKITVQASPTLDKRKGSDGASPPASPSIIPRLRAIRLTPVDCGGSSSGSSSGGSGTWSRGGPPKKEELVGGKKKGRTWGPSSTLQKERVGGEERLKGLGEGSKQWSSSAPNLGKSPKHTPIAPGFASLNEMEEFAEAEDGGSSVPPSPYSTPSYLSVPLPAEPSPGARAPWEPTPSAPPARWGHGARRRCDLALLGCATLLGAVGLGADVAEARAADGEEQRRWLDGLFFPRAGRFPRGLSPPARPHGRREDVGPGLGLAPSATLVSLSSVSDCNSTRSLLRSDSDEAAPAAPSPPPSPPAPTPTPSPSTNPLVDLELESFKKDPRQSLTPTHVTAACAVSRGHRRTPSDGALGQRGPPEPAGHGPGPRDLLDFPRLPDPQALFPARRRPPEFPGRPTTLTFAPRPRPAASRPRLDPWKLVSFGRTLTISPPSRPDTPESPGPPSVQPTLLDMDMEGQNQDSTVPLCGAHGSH

[17] = target: T6, MEK1 (Homo sapiens, UniProt Q02750)
T6 construct: gene MAP2K1

[18] = target: MINK1 (Homo sapiens, UniProt Q8N4C8)
[19] = target: T7, PAK4KD (Homo sapiens, UniProt O96013)
T7 construct: gene PAK4; kinase domain

[20] = target: PDGFRB (Homo sapiens, UniProt P09619)
[21] = target: T8, PKCbeta1 (Homo sapiens, UniProt P05771)
T8 construct: gene PRKCB; isoform beta1
T8 sequence (P05771 whole entry, canonical isoform): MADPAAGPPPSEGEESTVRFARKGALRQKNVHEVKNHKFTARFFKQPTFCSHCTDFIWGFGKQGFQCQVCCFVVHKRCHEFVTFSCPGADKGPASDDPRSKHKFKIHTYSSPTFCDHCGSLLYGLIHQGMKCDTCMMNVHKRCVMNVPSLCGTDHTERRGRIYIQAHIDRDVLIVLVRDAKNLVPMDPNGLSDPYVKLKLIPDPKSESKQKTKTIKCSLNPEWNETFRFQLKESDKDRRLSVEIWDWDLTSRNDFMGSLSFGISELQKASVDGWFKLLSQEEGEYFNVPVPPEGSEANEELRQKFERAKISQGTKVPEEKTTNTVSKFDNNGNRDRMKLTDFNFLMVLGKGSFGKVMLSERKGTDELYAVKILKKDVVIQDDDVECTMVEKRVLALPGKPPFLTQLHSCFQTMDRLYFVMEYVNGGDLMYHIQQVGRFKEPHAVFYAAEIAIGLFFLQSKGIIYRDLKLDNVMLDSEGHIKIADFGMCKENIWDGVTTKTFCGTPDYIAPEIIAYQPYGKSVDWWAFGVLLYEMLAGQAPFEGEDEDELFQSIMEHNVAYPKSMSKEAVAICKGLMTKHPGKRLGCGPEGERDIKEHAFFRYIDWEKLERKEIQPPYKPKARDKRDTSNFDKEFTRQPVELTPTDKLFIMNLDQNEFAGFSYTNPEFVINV

[22] = target: T9, PKCepsilon (Homo sapiens, UniProt Q02156)
T9 construct: gene PRKCE

[23] = target: T10, PKG1A (Homo sapiens, UniProt Q13976)
T10 construct: gene PRKG1; isoform 1 alpha

[24] = target: Plk3 (Homo sapiens, UniProt Q9H4B4)
[25] = target: RIPK2 (Homo sapiens, UniProt O43353)
[26] = target: Rock1 (Homo sapiens, UniProt Q13464)
[27] = target: TBK1 (Homo sapiens, UniProt Q9UHD2)
TBK1, sequence (Q9UHD2 whole entry): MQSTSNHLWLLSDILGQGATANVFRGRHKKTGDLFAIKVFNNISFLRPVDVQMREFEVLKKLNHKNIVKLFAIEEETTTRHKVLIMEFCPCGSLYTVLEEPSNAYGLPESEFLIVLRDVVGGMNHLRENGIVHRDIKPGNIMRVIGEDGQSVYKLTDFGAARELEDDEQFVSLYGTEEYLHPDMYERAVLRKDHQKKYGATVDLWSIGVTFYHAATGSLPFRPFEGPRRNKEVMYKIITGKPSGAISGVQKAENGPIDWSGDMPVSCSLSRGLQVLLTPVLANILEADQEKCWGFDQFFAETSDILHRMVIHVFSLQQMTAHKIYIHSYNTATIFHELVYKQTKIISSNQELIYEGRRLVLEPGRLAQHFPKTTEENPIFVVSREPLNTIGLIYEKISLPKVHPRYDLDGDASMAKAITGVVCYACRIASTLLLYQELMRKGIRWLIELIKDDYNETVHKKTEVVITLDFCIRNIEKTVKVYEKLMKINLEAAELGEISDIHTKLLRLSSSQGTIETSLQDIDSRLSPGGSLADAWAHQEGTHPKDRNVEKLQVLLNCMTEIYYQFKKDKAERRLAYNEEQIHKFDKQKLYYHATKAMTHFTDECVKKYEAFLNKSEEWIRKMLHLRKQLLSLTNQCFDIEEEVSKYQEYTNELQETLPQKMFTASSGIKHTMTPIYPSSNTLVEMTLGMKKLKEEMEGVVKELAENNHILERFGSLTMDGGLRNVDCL

[28] = target: TEC (Homo sapiens, UniProt P42680)
TEC, sequence (P42680 whole entry): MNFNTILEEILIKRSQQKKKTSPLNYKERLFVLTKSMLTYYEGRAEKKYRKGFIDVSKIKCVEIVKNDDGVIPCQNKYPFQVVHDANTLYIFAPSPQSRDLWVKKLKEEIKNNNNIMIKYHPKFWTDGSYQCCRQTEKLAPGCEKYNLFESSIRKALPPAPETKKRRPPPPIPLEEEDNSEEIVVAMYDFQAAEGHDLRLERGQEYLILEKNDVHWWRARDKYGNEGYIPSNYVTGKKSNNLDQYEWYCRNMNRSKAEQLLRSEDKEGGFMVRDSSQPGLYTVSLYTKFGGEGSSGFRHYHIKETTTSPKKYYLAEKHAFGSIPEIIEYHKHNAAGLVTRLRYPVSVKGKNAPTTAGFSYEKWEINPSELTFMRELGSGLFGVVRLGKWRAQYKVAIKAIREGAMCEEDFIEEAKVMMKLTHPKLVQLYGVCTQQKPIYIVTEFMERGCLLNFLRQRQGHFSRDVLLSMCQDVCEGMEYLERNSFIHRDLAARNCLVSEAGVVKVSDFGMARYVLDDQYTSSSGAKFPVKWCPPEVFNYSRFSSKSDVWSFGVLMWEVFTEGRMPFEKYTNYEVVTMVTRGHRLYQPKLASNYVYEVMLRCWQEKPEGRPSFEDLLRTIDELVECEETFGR

Measured: IC50

Akt1, sequence (P31749 whole entry): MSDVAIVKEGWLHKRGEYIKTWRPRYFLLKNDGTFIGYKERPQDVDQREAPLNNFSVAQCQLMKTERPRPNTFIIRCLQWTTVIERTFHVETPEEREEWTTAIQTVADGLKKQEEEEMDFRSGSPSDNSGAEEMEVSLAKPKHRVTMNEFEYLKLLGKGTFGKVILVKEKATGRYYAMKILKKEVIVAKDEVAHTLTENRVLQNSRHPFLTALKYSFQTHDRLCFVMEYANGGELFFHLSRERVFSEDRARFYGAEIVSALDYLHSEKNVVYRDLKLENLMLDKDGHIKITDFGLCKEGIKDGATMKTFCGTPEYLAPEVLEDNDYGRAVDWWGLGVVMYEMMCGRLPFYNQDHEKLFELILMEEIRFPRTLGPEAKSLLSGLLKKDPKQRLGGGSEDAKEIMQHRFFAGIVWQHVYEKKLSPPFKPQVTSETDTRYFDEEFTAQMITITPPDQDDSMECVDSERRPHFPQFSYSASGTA

CC(C)CCN[C@@H]1CCc2cc(O)c(N3CC(=O)NS3(=O)=O)c(F)c2C1 [AC484, ABBV-CLS-484]
> 10 µM: all assays above
